Earlier results on 1 compound are cited in patent US7364752B1, “Solid dispersion pharamaceutical formulations” (Abbott Laboratories, priority 1999, dated 2008).

For the series the following is noted: PEG solid dispersion formulation.

As for `O=C1N(Cc2ccc(CO)cc2)[C@H](Cc2ccccc2)[C@H](O)[C@@H](O)[C@@H](Cc2ccccc2)N1Cc1ccc(CO)cc1` [DMP 323], the bioavailability result was “unable to improve the bioavailability”.
